Data from patent publication US10875875B2, “Propionic acid derivatives and methods of use thereof” (Aviara Pharmaceuticals, Inc., priority 2017, dated 2020).

Legend:
α4β1 = α4β1 (Homo sapiens, UniProt P05556+P13612); assay: α4β1 integrin inhibition, IC50; type: binding; settings: read-out: α4β1 IC50
α4β7 = biological target: T1, α4β7 (Homo sapiens, UniProt P13612+P26010); assay: α4β7 integrin inhibition, IC50; type: binding
T1 sequence (P13612 34-1032): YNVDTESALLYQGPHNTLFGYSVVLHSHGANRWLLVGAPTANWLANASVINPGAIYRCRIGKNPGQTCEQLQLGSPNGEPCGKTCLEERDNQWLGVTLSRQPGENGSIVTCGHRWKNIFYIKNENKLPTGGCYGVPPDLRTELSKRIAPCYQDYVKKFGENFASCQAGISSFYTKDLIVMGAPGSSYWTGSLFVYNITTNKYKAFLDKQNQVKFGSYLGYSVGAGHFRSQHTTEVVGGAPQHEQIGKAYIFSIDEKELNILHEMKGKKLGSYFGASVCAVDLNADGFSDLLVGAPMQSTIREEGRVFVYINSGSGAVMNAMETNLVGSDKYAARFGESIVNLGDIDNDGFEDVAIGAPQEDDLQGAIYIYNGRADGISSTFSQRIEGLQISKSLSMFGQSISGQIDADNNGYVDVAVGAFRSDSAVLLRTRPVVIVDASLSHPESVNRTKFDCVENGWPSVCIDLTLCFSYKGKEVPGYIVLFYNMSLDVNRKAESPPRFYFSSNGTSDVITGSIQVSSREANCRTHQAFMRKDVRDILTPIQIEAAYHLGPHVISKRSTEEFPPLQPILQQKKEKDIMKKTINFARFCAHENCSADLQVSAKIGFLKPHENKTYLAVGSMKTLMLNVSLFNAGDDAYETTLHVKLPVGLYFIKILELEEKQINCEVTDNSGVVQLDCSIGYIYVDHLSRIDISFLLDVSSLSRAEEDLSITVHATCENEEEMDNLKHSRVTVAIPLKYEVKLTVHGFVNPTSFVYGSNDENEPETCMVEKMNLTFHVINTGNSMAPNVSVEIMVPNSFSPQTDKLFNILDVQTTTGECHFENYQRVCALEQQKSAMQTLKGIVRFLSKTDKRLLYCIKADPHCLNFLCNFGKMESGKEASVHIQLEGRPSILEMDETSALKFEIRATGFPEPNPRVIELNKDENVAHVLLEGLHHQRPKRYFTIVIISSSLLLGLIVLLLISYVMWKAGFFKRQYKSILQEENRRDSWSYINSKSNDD
T1 sequence (P26010 20-798): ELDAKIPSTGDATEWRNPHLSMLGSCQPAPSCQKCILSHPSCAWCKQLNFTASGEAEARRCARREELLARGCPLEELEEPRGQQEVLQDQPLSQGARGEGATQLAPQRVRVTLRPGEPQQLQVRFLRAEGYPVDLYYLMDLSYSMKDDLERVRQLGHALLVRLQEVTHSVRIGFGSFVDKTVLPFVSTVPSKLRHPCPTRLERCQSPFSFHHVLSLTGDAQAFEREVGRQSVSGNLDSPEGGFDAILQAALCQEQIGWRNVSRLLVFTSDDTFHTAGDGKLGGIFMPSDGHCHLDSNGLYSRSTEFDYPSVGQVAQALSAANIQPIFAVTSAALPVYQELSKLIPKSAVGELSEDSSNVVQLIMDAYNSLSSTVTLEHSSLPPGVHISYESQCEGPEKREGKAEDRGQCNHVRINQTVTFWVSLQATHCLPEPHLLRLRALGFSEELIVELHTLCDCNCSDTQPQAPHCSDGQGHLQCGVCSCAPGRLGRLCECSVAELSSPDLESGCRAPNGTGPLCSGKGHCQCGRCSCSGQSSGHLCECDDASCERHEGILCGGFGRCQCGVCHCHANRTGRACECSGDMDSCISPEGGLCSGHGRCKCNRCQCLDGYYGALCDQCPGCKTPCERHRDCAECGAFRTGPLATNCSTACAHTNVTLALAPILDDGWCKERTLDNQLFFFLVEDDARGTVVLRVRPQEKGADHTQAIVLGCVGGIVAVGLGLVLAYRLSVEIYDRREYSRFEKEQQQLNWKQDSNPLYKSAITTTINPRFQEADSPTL

Sequence of α4β1 (P05556 21-798, one chain of several): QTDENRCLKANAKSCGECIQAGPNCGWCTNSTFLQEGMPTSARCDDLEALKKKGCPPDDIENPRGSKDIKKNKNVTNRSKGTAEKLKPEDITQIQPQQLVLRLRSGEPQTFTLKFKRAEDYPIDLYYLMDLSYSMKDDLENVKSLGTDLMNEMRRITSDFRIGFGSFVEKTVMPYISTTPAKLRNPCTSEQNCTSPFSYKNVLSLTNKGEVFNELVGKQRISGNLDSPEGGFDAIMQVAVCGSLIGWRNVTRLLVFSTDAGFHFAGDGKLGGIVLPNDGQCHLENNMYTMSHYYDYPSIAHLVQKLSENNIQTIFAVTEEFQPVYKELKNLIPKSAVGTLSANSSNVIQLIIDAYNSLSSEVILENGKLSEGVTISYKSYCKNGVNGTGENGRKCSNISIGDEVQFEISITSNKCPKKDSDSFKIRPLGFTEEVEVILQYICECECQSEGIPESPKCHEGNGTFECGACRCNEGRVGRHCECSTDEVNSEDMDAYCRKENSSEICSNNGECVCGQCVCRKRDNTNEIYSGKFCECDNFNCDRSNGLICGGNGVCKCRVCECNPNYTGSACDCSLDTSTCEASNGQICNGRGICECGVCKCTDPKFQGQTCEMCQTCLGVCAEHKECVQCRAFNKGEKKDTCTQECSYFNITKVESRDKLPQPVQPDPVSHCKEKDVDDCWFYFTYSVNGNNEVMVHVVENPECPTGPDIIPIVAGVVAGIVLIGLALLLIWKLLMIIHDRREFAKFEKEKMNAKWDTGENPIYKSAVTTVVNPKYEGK

IC50 (α4β1) [nM]	IC50 (α4β7) [nM]	Structure (SMILES)
< 20	> 200	O=C(O)C[C@H](NC(=O)Nc1c(O)cc2n(c1=O)CCC2)c1cccc(-c2ccc(F)cc2F)c1 [1-629, sodium (S)-3-(2′,4′-difluorobiphenyl-3-yl)-3-(3-(7-oxido-5-oxo-1,2,3,5-tetrahydroindolizin-6-yl)ureido)propanoate]
< 20	< 20	Cc1cccc(C)c1-c1cc([C@H](CC(=O)O)NC(=O)Nc2c(O)ccn(C)c2=O)ccc1F [1-561, sodium (S)-3-(6-fluoro-2′,6′-dimethylbiphenyl-3-yl)-3-(3-(1-methyl-4-oxido-2-oxo-1,2-dihydropyridin-3-yl)ureido)propanoate]
< 20	> 200	Cc1cc(-c2cccc(OC(F)(F)F)c2)cc([C@H](CC(=O)O)NC(=O)Nc2c(O)ccn(C)c2=O)c1 [1-572, sodium (S)-3-(5-methyl-3′-(trifluoromethoxy)biphenyl-3-yl)-3-(3-(1-methyl-4-oxido-2-oxo-1,2-dihydropyridin-3-yl)ureido)propanoate]
< 20	< 200	Cc1cn(C)c(=O)c(NC(=O)N[C@@H](CC(=O)O)c2cccc(-c3c(C)cccc3C)c2)c1O [1-470, sodium (S)-3-(3-(1,5-dimethyl-4-oxido-2-oxo-1,2-dihydropyridin-3-yl)ureido)-3-(2′,6′-dimethylbiphenyl-3-yl)propanoate]
< 20	< 200	Cn1ccc(O)c(NC(=O)N[C@@H](CC(=O)O)c2cccc(-c3c(Cl)cccc3Cl)c2)c1=O [1-537, sodium (S)-3-(2′,6′-dichlorobiphenyl-3-yl)-3-(3-(1-methyl-4-oxido-2-oxo-1,2-dihydropyridin-3-yl)ureido)propanoate]
< 20	< 20	COc1cc(-c2c(C)cccc2C)cc([C@H](CC(=O)O)NC(=O)Nc2c(O)ccn(C)c2=O)c1 [1-579, sodium (S)-3-(5-methoxy-2′,6′-dimethylbiphenyl-3-yl)-3-(3-(1-methyl-4-oxido-2-oxo-1,2-dihydropyridin-3-yl)ureido)propanoate]
< 20	< 20	Cc1cccc(C)c1-c1cccc([C@H](CC(=O)O)NC(=O)Nc2c(O)cc3n(c2=O)CCC3)c1 [1-583, sodium (S)-3-(2′,6′-dimethylbiphenyl-3-yl)-3-(3-(7-oxido-5-oxo-1,2,3,5-tetrahydroindolizin-6-yl)ureido)propanoate]
< 20	< 20	COc1cc(-c2c(C)cccc2C)cc([C@H](CC(=O)O)NC(=O)Nc2c(O)cc(C)n(C)c2=O)c1 [1-580, sodium (S)-3-(3-(1,6-dimethyl-4-oxido-2-oxo-1,2-dihydropyridin-3-yl)ureido)-3-(5-methoxy-2′,6′-dimethylbiphenyl-3-yl)propanoate]
< 20	> 200	Cc1cc(O)c(NC(=O)N[C@@H](CC(=O)O)c2cccc(-c3ccc(F)cc3F)c2)c(=O)n1C [1-487, sodium (S)-3-(2′,4′-difluorobiphenyl-3-yl)-3-(3-(1,6-dimethyl-4-oxido-2-oxo-1,2-dihydropyridin-3-yl)ureido)propanoate]
< 20	> 200	Cn1ccc(O)c(NC(=O)N[C@@H](CC(=O)O)c2cccc(-c3ccc(F)cc3F)c2)c1=O [1-488, sodium (S)-3-(2′,4′-difluorobiphenyl-3-yl)-3-(3-(1-methyl-4-oxido-2-oxo-1,2-dihydropyridin-3-yl)ureido)propanoate]
< 20	< 20	Cc1cccc(C)c1-c1cc(F)cc([C@H](CC(=O)O)NC(=O)Nc2c(O)cc(C)n(C)c2=O)c1 [1-642, sodium (S)-3-(3-(1,6-dimethyl-4-oxido-2-oxo-1,2-dihydropyridin-3-yl)ureido)-3-(5-fluoro-2′,6′-dimethylbiphenyl-3-yl)propanoate]
< 20	> 200	Cc1noc(C)c1-c1cccc([C@H](CC(=O)O)NC(=O)Nc2c(O)ccn(C)c2=O)c1 [1-560, sodium (S)-3-(3-(3,5-dimethylisoxazol-4-yl)phenyl)-3-(3-(1-methyl-4-oxido-2-oxo-1,2-dihydropyridin-3-yl)ureido)propanoate]
< 20	< 200	Cc1cccc(C)c1-c1cccc([C@H](CC(=O)O)NC(=O)Nc2c(O)ccn(C)c2=O)c1 [1-502, sodium (S)-3-(2′,6′-dimethylbiphenyl-3-yl)-3-(3-(1-methyl-4-oxido-2-oxo-1,2-dihydropyridin-3-yl)ureido)propanoate]
< 20	< 200	Cc1cccc(C)c1-c1cccc([C@H](CC(=O)O)NC(=O)Nc2c(O)cc(C)n(C)c2=O)c1 [1-550, sodium (S)-3-(3-(1,6-dimethyl-4-oxido-2-oxo-1,2-dihydropyridin-3-yl)ureido)-3-(2′,6′-dimethylbiphenyl-3-yl)propanoate]
< 20	< 200	COc1cccc(-c2cc(C)cc([C@H](CC(=O)O)NC(=O)Nc3c(O)ccn(C)c3=O)c2)c1 [1-582, sodium (S)-3-(3′-methoxy-5-methylbiphenyl-3-yl)-3-(3-(1-methyl-4-oxido-2-oxo-1,2-dihydropyridin-3-yl)ureido)propanoate]
< 20	< 20	Cc1cccc(C)c1-c1ccc(F)c([C@H](CC(=O)O)NC(=O)Nc2c(O)ccn(C)c2=O)c1 [1-590, sodium (S)-3-(4-fluoro-2′,6′-dimethylbiphenyl-3-yl)-3-(3-(1-methyl-4-oxido-2-oxo-1,2-dihydropyridin-3-yl)ureido)propanoate]
< 20		COc1cccc(-c2cc([C@H](CC(=O)O)NC(=O)Nc3c(O)ccn(C)c3=O)ccc2OC(F)(F)F)c1 [1-634, sodium (S)-3-(3′-methoxy-6-(trifluoromethoxy)biphenyl-3-yl)-3-(3-(1-methyl-4-oxido-2-oxo-1,2-dihydropyridin-3-yl)ureido)propanoate]
< 20		COc1cccc(-c2cccc([C@H](CC(=O)O)NC(=O)Nc3c(O)ccn(C)c3=O)c2)c1 [1-501, sodium (S)-3-(3′-methoxybiphenyl-3-yl)-3-(3-(1-methyl-4-oxido-2-oxo-1,2-dihydropyridin-3-yl)ureido)propanoate]
< 20		Cn1ccc(O)c(NC(=O)N[C@@H](CC(=O)O)c2cccc(-c3nccs3)c2)c1=O [1-630, sodium (S)-3-(3-(1-methyl-4-oxido-2-oxo-1,2-dihydropyridin-3-yl)ureido)-3-(3-(thiazol-2-yl)phenyl)propanoate]
< 20		Cc1cn(C)c(=O)c(NC(=O)N[C@@H](CC(=O)O)c2cccc(-n3c(C)ccc3C)c2)c1O [1-483, sodium (S)-3-(3-(2,5-dimethyl-1H-pyrrol-1-yl)phenyl)-3-(3-(1,5-dimethyl-4-oxido-2-oxo-1,2-dihydropyridin-3-yl)ureido)propanoate]
< 20		COc1cccc(-c2cc([C@H](CC(=O)O)NC(=O)Nc3c(O)cc(C)n(C)c3=O)ccc2C)c1 [1-569, sodium (S)-3-(3-(1,6-dimethyl-4-oxido-2-oxo-1,2-dihydropyridin-3-yl)ureido)-3-(3′-methoxy-6-methylbiphenyl-3-yl)propanoate]
< 20		Cc1cc(O)c(NC(=O)N[C@@H](CC(=O)O)c2ccc(-c3ccc(F)cc3F)cc2)c(=O)n1C [1-622, sodium (S)-3-(2′,4′-difluorobiphenyl-4-yl)-3-(3-(1,6-dimethyl-4-oxido-2-oxo-1,2-dihydropyridin-3-yl)ureido)propanoate]
